Assay results reported in PubChem BioAssay AID1919002 (Molecular Pharmacology Branch, DTP, NCI, 2023).

Tested on: 743489-274-T-PDC complex spheroid growth
Test: Anticancer human tumor 743489-274-T-PDC patient-derived renal cell carcinoma cell line growth inhibition [AhR]
Details: for IC50: curve of first compound; for viability, T/C: stronger effect = lower value
Outline: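 Agents were dosed in half-log steps down from roughly clinical Cmax, or from 10 microM where Cmax was unknown, alone and with AhR antagonists. Read-out: percent test/control growth of tumor spheroids containing HUVEC and MSC stromal cells.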

[1] = second compound 0.1 µM, first compound 0.000949 µM
[2] = second compound 0.1 µM, first compound 0.003 µM
[3] = second compound 0.1 µM, first compound 0.00949 µM
[4] = second compound 0.1 µM, first compound 0.03 µM
[5] = second compound 0.1 µM, first compound 0.0949 µM
[6] = second compound 0.1 µM, first compound 0.3 µM
[7] = second compound 0.316 µM, first compound 0.000949 µM
[8] = second compound 0.316 µM, first compound 0.003 µM
[9] = second compound 0.316 µM, first compound 0.00949 µM
[10] = second compound 0.316 µM, first compound 0.03 µM
[11] = second compound 0.316 µM, first compound 0.0949 µM
[12] = second compound 0.316 µM, first compound 0.3 µM
[13] = second compound 1 µM, first compound 0.000949 µM
[14] = second compound 1 µM, first compound 0.003 µM
[15] = second compound 1 µM, first compound 0.00949 µM
[16] = second compound 1 µM, first compound 0.03 µM
[17] = second compound 1 µM, first compound 0.0949 µM
[18] = second compound 1 µM, first compound 0.3 µM
[19] = second compound 3.16 µM, first compound 0.000949 µM
[20] = second compound 3.16 µM, first compound 0.003 µM
[21] = second compound 3.16 µM, first compound 0.00949 µM
[22] = second compound 3.16 µM, first compound 0.03 µM
[23] = second compound 3.16 µM, first compound 0.0949 µM
[24] = second compound 3.16 µM, first compound 0.3 µM
[25] = second compound 10 µM, first compound 0.000949 µM
[26] = second compound 10 µM, first compound 0.003 µM
[27] = second compound 10 µM, first compound 0.00949 µM
[28] = second compound 10 µM, first compound 0.03 µM
[29] = second compound 10 µM, first compound 0.0949 µM
[30] = second compound 10 µM, first compound 0.3 µM
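Note: spheroids exposed to agents for 7 days before readout.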
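Throughout, for viability, T/C: 100% = DMSO vehicle control wells.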

IC50 (second compound 0.1 µM) [nM]	IC50 (second compound 0.316 µM) [nM]	IC50 (second compound 1 µM) [nM]	IC50 (second compound 3.16 µM) [nM]	IC50 (second compound 10 µM) [nM]	SMILES	viability, T/C [1] [%]	viability, T/C [2] [%]	viability, T/C [3] [%]	viability, T/C [4] [%]	viability, T/C [5] [%]	viability, T/C [6] [%]	viability, T/C [7] [%]	viability, T/C [8] [%]	viability, T/C [9] [%]	viability, T/C [10] [%]	viability, T/C [11] [%]	viability, T/C [12] [%]	viability, T/C [13] [%]	viability, T/C [14] [%]	viability, T/C [15] [%]	also measured
> 300	> 300	238	> 300	86.2	CCc1c2c(nc3ccc(O)cc13)-c1cc3c(c(=O)n1C2)COC(=O)[C@]3(O)CC + Cc1ccccc1N=Nc1ccc(NC(=O)c2ccnn2C)c(C)c1	79.7	94.1	89.5	76.1	59.2	55.1	83.4	89.2	94.8	71.2	54.9	50	90.2	93.2	79.6	viability, T/C [16]: 72.1%; viability, T/C [17]: 60%; viability, T/C [18]: 47.3%; viability, T/C [19]: 85.1%; viability, T/C [20]: 88.9%; viability, T/C [21]: 80.7%; viability, T/C [22]: 62.8%; viability, T/C [23]: 57.8%; viability, T/C [24]: 50.2%; viability, T/C [25]: 85.4%; viability, T/C [26]: 84.7%; viability, T/C [27]: 76.8%; viability, T/C [28]: 60%; viability, T/C [29]: 50.2%; viability, T/C [30]: 44.7%
> 300	> 300	> 300	> 300	> 300	CCc1c2c(nc3ccc(O)cc13)-c1cc3c(c(=O)n1C2)COC(=O)[C@]3(O)CC + CC(CO)NC(=O)c1cc(-c2ccc(Cl)cc2)nn(-c2cnn(C)c2)c1=O	107	105	87	88.1	70.5	64.5	87.7	94	103	78.7	71.5	55.8	98.4	88.7	91.6	viability, T/C [16]: 88.7%; viability, T/C [17]: 73.1%; viability, T/C [18]: 68.4%; viability, T/C [19]: 94.2%; viability, T/C [20]: 100%; viability, T/C [21]: 97.9%; viability, T/C [22]: 84.3%; viability, T/C [23]: 76.8%; viability, T/C [24]: 59.3%; viability, T/C [25]: 87.7%; viability, T/C [26]: 93.1%; viability, T/C [27]: 82.7%; viability, T/C [28]: 97.7%; viability, T/C [29]: 79.7%; viability, T/C [30]: 65.2%
